Broadly, the IC50 is the concentration that inhibits the measured activity by half. A high value points to a need for much substance.

The target of one test is T1, human TRPV1 (Homo sapiens, UniProt Q8NER1).
T1 construct: expressed in transfected cells; host or cells: HEK293 (hTRPV1/HEK293), zeocin selection
The experiment in a line: Functional assay: block of capsaicin-induced Ca2+ influx, human assay (hTRPV1/HEK293, FLIPR). The format is cell-based. The settings on record: hTRPV1/HEK293 cells, 150 nM capsaicin challenge, Fluo-3 fluorescence; mean; > value = solubility limit in assay medium. The gist of the method:
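HEK293 cells stably expressing human TRPV1, fluo3-loaded, preincubated 30 min with compound (serial 3-fold dilutions from 10 μM, duplicate) in 20 μM Ca2+ buffer. Capsaicin response taken as fluo3 fluorescence change before vs 100 s after agonist; IC50 by non-linear regression, mean values; free base or TFA salt.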

In a further test the target is T2, rat TRPV1 (Rattus norvegicus, UniProt O35433).
T2 construct: expressed in transfected cells; host or cells: HEK293 (rTRPV1/HEK293), geneticin selection
The experiment in a line: Functional assay: block of capsaicin-induced Ca2+ influx, rat assay (rTRPV1/HEK293, FLIPR). The test is classed as cell-based. As to conditions: rTRPV1/HEK293 cells, capsaicin challenge, Fluo-3 fluorescence; mean; > value = solubility limit in assay medium. The gist of the method: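 HEK293 cells expressing rat TRPV1, loaded with fluo3 and preincubated 30 min with compound in 20 μM Ca2+ buffer before capsaicin challenge. Block read as fluo3 fluorescence change over 100 s after agonist, 3-fold series from 10 μM in duplicate. IC50 by non-linear regression, mean values.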

Where only a bound is given, the exact number is not on record here.

T1 sequence (Q8NER1 whole entry): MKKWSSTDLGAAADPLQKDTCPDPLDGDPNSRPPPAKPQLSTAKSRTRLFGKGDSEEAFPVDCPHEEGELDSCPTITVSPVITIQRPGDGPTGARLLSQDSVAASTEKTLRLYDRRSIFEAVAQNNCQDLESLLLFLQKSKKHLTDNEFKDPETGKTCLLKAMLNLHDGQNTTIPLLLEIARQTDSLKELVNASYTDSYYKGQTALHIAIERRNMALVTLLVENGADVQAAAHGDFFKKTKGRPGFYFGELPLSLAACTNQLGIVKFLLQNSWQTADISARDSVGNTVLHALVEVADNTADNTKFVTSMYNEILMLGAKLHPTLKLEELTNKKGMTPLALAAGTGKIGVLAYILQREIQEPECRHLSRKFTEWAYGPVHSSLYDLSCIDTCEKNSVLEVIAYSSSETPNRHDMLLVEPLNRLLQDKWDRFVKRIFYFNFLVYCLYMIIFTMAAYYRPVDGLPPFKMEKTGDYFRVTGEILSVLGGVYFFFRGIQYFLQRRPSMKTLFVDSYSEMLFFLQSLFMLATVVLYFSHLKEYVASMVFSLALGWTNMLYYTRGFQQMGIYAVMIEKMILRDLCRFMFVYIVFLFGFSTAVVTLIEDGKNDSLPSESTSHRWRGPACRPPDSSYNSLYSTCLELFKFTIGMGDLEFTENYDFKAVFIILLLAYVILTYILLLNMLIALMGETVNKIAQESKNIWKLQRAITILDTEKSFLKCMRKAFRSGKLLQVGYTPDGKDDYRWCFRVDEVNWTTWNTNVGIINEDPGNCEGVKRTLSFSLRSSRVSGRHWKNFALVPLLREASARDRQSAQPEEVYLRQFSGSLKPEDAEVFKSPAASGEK
T2 sequence (O35433 whole entry): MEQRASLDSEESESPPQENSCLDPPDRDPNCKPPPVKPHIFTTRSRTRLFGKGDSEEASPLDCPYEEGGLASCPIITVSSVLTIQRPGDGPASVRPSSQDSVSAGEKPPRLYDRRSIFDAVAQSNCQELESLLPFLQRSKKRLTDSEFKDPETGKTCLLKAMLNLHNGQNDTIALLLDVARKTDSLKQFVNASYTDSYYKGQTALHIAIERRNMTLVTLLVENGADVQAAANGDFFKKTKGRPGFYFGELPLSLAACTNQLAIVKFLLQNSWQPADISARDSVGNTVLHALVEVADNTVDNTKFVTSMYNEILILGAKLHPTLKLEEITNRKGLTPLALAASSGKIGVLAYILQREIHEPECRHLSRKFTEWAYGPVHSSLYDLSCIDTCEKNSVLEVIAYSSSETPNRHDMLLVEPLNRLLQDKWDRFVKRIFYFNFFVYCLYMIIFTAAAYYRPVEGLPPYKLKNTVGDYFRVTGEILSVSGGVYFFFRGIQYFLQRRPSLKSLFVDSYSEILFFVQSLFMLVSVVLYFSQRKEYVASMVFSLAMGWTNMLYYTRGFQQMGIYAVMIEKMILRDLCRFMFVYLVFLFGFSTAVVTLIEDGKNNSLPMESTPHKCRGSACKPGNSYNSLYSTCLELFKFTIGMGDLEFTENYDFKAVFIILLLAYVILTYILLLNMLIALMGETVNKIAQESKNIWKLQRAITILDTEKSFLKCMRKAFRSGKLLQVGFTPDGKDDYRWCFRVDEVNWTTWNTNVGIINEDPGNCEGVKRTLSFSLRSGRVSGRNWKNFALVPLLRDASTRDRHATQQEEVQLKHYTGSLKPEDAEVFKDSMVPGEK

In the case of `CC(C)C1CCCN1c1nc(Nc2ccc(S(C)(=O)=O)cc2)c2nc(Nc3c(Cl)cccc3Cl)sc2n1` (racemic) [Example 177, (racemic)-N^2-(2,6-Dichloro-phenyl)-5-(2-isopropyl-pyrrolidin-1-yl)-N^7-(4-methanesulfonyl-phenyl)-thiazolo[5,4-d]pyrimidine-2,7-diamine], the values for the IC50 against human TRPV1 and at rat TRPV1 were 21 nM and 3 nM, respectively.

In the case of `CCN(CC)c1nc(Nc2ccc(C(F)(F)F)cc2)c2nc(Nc3c(Cl)cccc3Cl)sc2n1` [Example 188, N^2-(2,6-Dichloro-phenyl)-N^5,N^5-diethyl-N^7-(4-trifluoromethyl-phenyl)-thiazolo[5,4-d]pyrimidine-2,5,7-triamine], the IC50 on human TRPV1 was 36 nM; on rat TRPV1, 40 nM.

Regarding `OCc1cc(Cl)c(Nc2nc3c(Nc4ccc(C(F)(F)F)cc4)ncnc3s2)c(Cl)c1` [Example 242, {3,5-Dichloro-4-[7-(4-trifluoromethyl-phenylamino)-thiazolo[5,4-d]pyrimidin-2-ylamino]-phenyl}-methanol], the half-maximal inhibitory concentration (IC50) on human TRPV1 and at rat TRPV1 was 1 nM each time.

Take `Cc1nc(Nc2ccc(N(S(C)(=O)=O)S(C)(=O)=O)cc2)c2nc(Nc3c(Cl)cccc3Cl)sc2n1` [Example 173, N-{4-[2-(2,6-Dichloro-phenylamino)-5-methyl-thiazolo[5,4-d]pyrimidin-7-ylamino]-phenyl}-dimethanesulfonamide]: the IC50 on human TRPV1 and against rat TRPV1 was > 6670 nM in each case.

With `Cc1nc(Nc2ccc(C)c(F)c2)c2nc(Nc3c(C)cccc3C)sc2n1` [Example 133, N^2-(2,6-Dimethyl-phenyl)-N^7-(3-fluoro-4-methyl-phenyl)-5-methyl-thiazolo[5,4-d]pyrimidine-2,7-diamine], the figures for the half-maximal inhibitory concentration (IC50) against human TRPV1 and against rat TRPV1 were 175 nM and 107 nM, respectively.

Take `Cc1cccc(C)c1Nc1nc2c(Nc3ccc(F)cc3)ncnc2s1` [Example 144, N^2-(2,6-Dimethyl-phenyl)-N^7-(4-fluoro-phenyl)-thiazolo[5,4-d]pyrimidine-2,7-diamine]: the IC50 against human TRPV1 amounted to 431 nM; on rat TRPV1, 221 nM.

For `CSc1ccc(Nc2ncnc3sc(Nc4c(C)cccc4C)nc23)cc1` [Example 120, N^2-(2,6-Dimethyl-phenyl)-N^7-(4-methylsulfanyl-phenyl)-thiazolo[5,4-d]pyrimidine-2,7-diamine], the IC50 against human TRPV1 was 64 nM; against rat TRPV1 it was 15 nM.

Consider `O=S(=O)(c1ccc(Nc2ncnc3sc(Nc4c(Cl)cccc4Cl)nc23)cc1)N1CCCC1` [Example 76, N^2-(2,6-Dichloro-phenyl)-N^7-[4-(pyrrolidine-1-sulfonyl)-phenyl]-thiazolo[5,4-d]pyrimidine-2,7-diamine], for which the IC50 on human TRPV1 and against rat TRPV1 was 1 nM in each case.

For the compound `Cc1cccc(C)c1Nc1nc2c(Nc3ccc(C(N)=O)cc3)ncnc2s1` [Example 169, 4-[2-(2,6-Dimethyl-phenylamino)-thiazolo[5,4-d]pyrimidin-7-ylamino]-benzamide], the results for the IC50 against human TRPV1 and on rat TRPV1 were > 20000 nM and 17300 nM, respectively.

On to `Clc1cccc(Cl)c1Nc1nc2c(Nc3ccccc3)ncnc2s1` [Example 204, N^2-(2,6-Dichloro-phenyl)-N^7-phenyl-thiazolo[5,4-d]pyrimidine-2,7-diamine], for which the results for the IC50 against human TRPV1 and against rat TRPV1 were 213 nM and 226 nM, respectively.

Take `Cc1cccc(C)c1Nc1nc2c(Nc3ccc(C(F)(F)F)c(F)c3)ncnc2s1` [Example 108, N^2-(2,6-Dimethyl-phenyl)-N^7-(3-fluoro-4-trifluoromethyl-phenyl)-thiazolo[5,4-d]pyrimidine-2,7-diamine]: the IC50 was 26 nM on human TRPV1 and 14 nM against rat TRPV1.

As to `O=S(=O)(c1ccc(Nc2ncnc3sc(Nc4ccccc4Cl)nc23)cc1)C(F)(F)F` [Example 203, N^2-(2-Chloro-phenyl)-N^7-(4-trifluoromethanesulfonyl-phenyl)-thiazolo[5,4-d]pyrimidine-2,7-diamine], the IC50 on human TRPV1 came out at 48 nM; on rat TRPV1, 76 nM.

In the case of `Cc1ccccc1Nc1nc2c(Nc3ccc(S(=O)(=O)N4CCCC4)cc3)ncnc2s1` [Example 83, N^7-[4-(Pyrrolidine-1-sulfonyl)-phenyl]-N^2-o-tolyl-thiazolo[5,4-d]pyrimidine-2,7-diamine], the IC50 amounted to 3 nM against human TRPV1 and 2 nM against rat TRPV1.

For `CC(=O)c1ccc(Nc2ncnc3sc(Nc4c(C)cccc4C)nc23)cc1` [Example 128, 1-{4-[2-(2,6-Dimethyl-phenylamino)-thiazolo[5,4-d]pyrimidin-7-ylamino]-phenyl}-ethanone], the 50% inhibitory concentration (IC50) on human TRPV1 came out at 138 nM; on rat TRPV1, 121 nM.

For `Cc1cccc(C)c1Nc1nc2c(Nc3ccc(C(=O)O)cc3)ncnc2s1` [Example 172, 4-[2-(2,6-Dimethyl-phenylamino)-thiazolo[5,4-d]pyrimidin-7-ylamino]-benzoic acid], the IC50 on human TRPV1 and against rat TRPV1 was > 20000 nM throughout.

Take `Cc1cccc(C)c1Nc1nc2c(Nc3ccc(C(C)C)cc3)ncnc2s1` [Example 46, N^2-(2,6-Dimethyl-phenyl)-N^7-(4-isopropyl-phenyl)-thiazolo[5,4-d]pyrimidine-2,7-diamine]: the half-maximal inhibitory concentration (IC50) at human TRPV1 is 8 nM; at rat TRPV1 it was 5 nM.

Take `CS(=O)(=O)c1ccc(Nc2ncnc3sc(Nc4ccccc4S(C)(=O)=O)nc23)cc1` [Example 198, N^2-(2-Methanesulfonyl-phenyl)-N^7-(4-methanesulfonyl-phenyl)-thiazolo[5,4-d]pyrimidine-2,7-diamine]: the figures for the 50% inhibitory concentration (IC50) against human TRPV1 and at rat TRPV1 were 9740 nM and > 20000 nM, respectively.

As to `O=S(=O)(c1ccc(Nc2ncnc3sc(Nc4c(Cl)cccc4Cl)nc23)cc1)N1CCNCC1` [Example 134, N^2-(2,6-Dichloro-phenyl)-N^7-[4-(piperazine-1-sulfonyl)-phenyl]-thiazolo[5,4-d]pyrimidine-2,7-diamine], the half-inhibitory concentration (IC50) at human TRPV1 is 202 nM; on rat TRPV1, 78 nM.

Regarding `CS(=O)(=O)c1ccc(Nc2ncnc3sc(Nc4c(Cl)cccc4Cl)nc23)cc1` [Example 87, N^2-(2,6-Dichloro-phenyl)-N^7-(4-methanesulfonyl-phenyl)-thiazolo[5,4-d]pyrimidine-2,7-diamine], the 50% inhibitory concentration (IC50) against human TRPV1 is 6 nM; at rat TRPV1 it was 4 nM.

For the compound `Cc1nc(Nc2ccc(C(C)(C)C)cc2)c2nc(Nc3c(C)noc3C)sc2n1` [Example 209, N^7-(4-tert-Butyl-phenyl)-N^2-(3,5-dimethyl-isoxazol-4-yl)-5-methyl-thiazolo[5,4-d]pyrimidine-2,7-diamine], the 50% inhibitory concentration (IC50) against human TRPV1 stood at 269 nM; on rat TRPV1, 162 nM.

On to `Cc1nc(Nc2ccc(S(=O)(=O)N(C)C)cc2)c2nc(Nc3c(Cl)cccc3Cl)sc2n1` [Example 81, 4-[2-(2,6-Dichloro-phenylamino)-5-methyl-thiazolo[5,4-d]pyrimidin-7-ylamino]-N,N-dimethyl-benzenesulfonamide], for which the concentration for half-maximal inhibition (IC50) against human TRPV1 and against rat TRPV1 was 2 nM throughout.

As for `Cc1nc(Nc2ccc(C(F)(F)F)cc2)c2nc(Nc3cccc4nsnc34)sc2n1` [Example 205, N^2-Benzo[1,2,5]thiadiazol-4-yl-5-methyl-N^7-(4-trifluoromethyl-phenyl)-thiazolo[5,4-d]pyrimidine-2,7-diamine], the figures for the half-maximal inhibitory concentration (IC50) against human TRPV1 and against rat TRPV1 were 16600 nM and 12500 nM, respectively.

In the case of `FC(F)(F)c1ccc(Nc2nc(NCC3CC3)nc3sc(Nc4c(Cl)cccc4Cl)nc23)cc1` [Example 62, N^5-Cyclopropylmethyl-N^2-(2,6-dichloro-phenyl)-N^7-(4-trifluoromethyl-phenyl)-thiazolo[5,4-d]pyrimidine-2,5,7-triamine], the figures for the half-maximal inhibitory concentration (IC50) on human TRPV1 and against rat TRPV1 were 20 nM and 4 nM, respectively.

Consider `Cc1cccc(C)c1Nc1nc2c(Nc3ccc(C(F)(F)F)nc3)ncnc2s1` [Example 11, N^2-(2,6-Dimethyl-phenyl)-N^7-(6-trifluoromethyl-pyridin-3-yl)-thiazolo[5,4-d]pyrimidine-2,7-diamine], for which the IC50 against human TRPV1 came to 23 nM; on rat TRPV1, 7 nM.

Regarding `OCC1CN(c2nc(Nc3ccc(C(F)(F)F)c(Cl)c3)c3nc(Nc4c(Cl)cccc4Cl)sc3n2)CCO1` (racemic) [Example 155, (racemic)-{4-[7-(3-Chloro-4-trifluoromethyl-phenylamino)-2-(2,6-dichloro-phenylamino)-thiazolo[5,4-d]pyrimidin-5-yl]-morpholin-2-yl}-methanol], the IC50 at human TRPV1 was 1540 nM; on rat TRPV1, 414 nM.

Take `Cc1nc(Nc2ccc(C(F)(F)F)cc2)c2nc(Nc3ccccc3Cl)sc2n1` [Example 202, N^2-(2-Chloro-phenyl)-5-methyl-N^7-(4-trifluoromethyl-phenyl)-thiazolo[5,4-d]pyrimidine-2,7-diamine]: the IC50 against human TRPV1 turned out to be 57 nM; at rat TRPV1, 58 nM.

Consider `O=S(=O)(c1ccc(Nc2ncnc3sc(Nc4ccccc4Cl)nc23)cc1)N1CCCC1` [Example 109, N^2-(2-Chloro-phenyl)-N^7-[4-(pyrrolidine-1-sulfonyl)-phenyl]-thiazolo[5,4-d]pyrimidine-2,7-diamine], for which the IC50 against human TRPV1 was determined as 28 nM; against rat TRPV1 it was 18 nM.

Consider `Cc1nc(Nc2cccnc2)c2nc(Nc3c(Cl)cccc3Cl)sc2n1` [Example 166, N^2-(2,6-Dichloro-phenyl)-5-methyl-N^7-pyridin-3-yl-thiazolo[5,4-d]pyrimidine-2,7-diamine], for which the IC50 against human TRPV1 and against rat TRPV1 was > 6670 nM in each case.

(Values after patent publication US20080004253A1, “Thiazolopyrimidine modulators of TRPV1” (priority 2006, published 2008).)
